From patent publication US20240025922A1, “TETRAHYDROPYRIDO[3,4-d]PYRIMIDINES AS HPK1 INHIBITORS” (Merck Patent GmbH, priority 2022, published 2024)
Like-named read-outs stand apart in the source and are kept apart here.

Columns and labels:
[1] = target: HPK1 (SLP76 phosphorylation at Ser376 in Jurkat and EL-4 cells) (Homo sapiens, UniProt Q92918); format: cell-based
Procedure, shortened: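 Jurkat (human) and EL-4 (mouse) cells, endogenous HPK1/SLP76, preincubated 60 min with compounds (10-point dilution), then stimulated with αCD3/αCD28 beads at 37 °C: 15 min for Jurkat, 30 min for EL-4. Ser376 pSLP76 in lysates read by AlphaLISA (Jurkat) or HTRF (EL-4); % inhibition and IC50 fitted.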

[2] = target: full-length human HPK1 (MAP4K1) (Homo sapiens (Human), UniProt Q92918); experiment: HPK1 Kinase Assay (Biochemical Assay), ADP-Glo; conditions: GST-HPK1 3.2 nM, 10 μM ATP, MBP substrate, read-out: HPK1 enzymatic IC50
Chain of full-length human HPK1 (MAP4K1) (Q92918 whole entry): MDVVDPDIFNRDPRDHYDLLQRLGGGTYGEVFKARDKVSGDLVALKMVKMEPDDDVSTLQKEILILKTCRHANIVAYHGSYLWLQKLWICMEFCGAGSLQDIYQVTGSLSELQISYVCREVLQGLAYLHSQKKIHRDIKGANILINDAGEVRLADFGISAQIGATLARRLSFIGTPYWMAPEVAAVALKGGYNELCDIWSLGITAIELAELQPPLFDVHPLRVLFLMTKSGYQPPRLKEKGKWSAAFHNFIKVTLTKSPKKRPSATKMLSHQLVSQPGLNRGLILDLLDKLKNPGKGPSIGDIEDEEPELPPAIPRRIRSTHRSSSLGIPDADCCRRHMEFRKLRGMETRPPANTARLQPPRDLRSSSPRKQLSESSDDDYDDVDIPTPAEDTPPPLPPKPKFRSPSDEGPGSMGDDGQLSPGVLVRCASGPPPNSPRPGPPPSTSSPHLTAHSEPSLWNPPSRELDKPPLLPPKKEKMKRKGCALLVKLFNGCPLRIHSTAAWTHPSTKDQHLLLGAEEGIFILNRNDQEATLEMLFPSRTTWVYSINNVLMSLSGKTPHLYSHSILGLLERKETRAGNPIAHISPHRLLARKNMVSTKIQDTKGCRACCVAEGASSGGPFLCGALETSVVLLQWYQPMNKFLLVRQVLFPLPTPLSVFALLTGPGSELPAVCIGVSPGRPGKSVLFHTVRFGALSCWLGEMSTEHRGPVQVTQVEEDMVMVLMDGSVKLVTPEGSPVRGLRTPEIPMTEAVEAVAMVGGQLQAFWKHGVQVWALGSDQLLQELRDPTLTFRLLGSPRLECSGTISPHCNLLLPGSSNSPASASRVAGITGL
Procedure, shortened: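 GST-tagged full-length human HPK1 was expressed in Sf21 cells and used at 3.2 nM in 50 mM HEPES pH 7.5, 10 mM MgCl2, 2 mM DTT, 12.5 mM O-glycerophosphate, 0.01% BSA and 0.02% Brij-35. It was preincubated 15 min with 10-point compound dilutions, and the reaction was started with a start mix of 10 μM ATP and 3.235 μM MBP. After 120 min, ADP was measured by ADP-Glo luminescence and IC50 derived.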

[3] = αCD3/αCD28 Dynabeads stimulated cells, pSLP76 (Ser376) detection; read-out: HPK1 pSLP76 IC50

Chain of HPK1 (SLP76 phosphorylation at Ser376 in Jurkat and EL-4 cells) (Q92918 whole entry, looked up): as the sequence (Q92918 whole entry) above

Compound | IC50 [1, 3] [nM] | IC50 [2] [nM] | IC50 ([1]; read-out: HPK1 pSLP76 IC50; αCD3/αCD28 Dynabeads stimulated cells, pSLP76 (Ser376) detection) [nM]
Cc1c(N2CCc3cnc(Nc4ccc(CC(=O)N5CC(N6CCOCC6)C5)cc4)nc3C2)cnc2c1NCCO2 [Example 165, 2-{4-[(7-{8-methyl-1H,2H,3H-pyrido[2,3-b][1,4]oxazin-7-yl}-5H,6H,7H,8H-pyrido[3,4-d]pyrimidin-2-yl)amino]phenyl}-1-[3-(morpholin-4-yl)azetidin-1-yl]ethan-1-one] | < 500 | < 100 | –
Cc1c(N2CCc3cnc(Nc4cccc(CS(C)(=N)=O)c4)nc3C2)cnc2c1NCCO2 (stereo not shown) [Example 168, imino(methyl)(3-((7-(8-methyl-2,3-dihydro-1H-pyrido[2,3-b][1,4]oxazin-7-yl)-5,6,7,8-tetrahydropyrido[3,4-d]pyrimidin-2-yl)amino)benzyl)-16-sulfanone] | < 500 | < 100 | –
Cc1c(N2CCc3cnc(Nc4ccc(CS(C)(=O)=O)cc4)nc3C2)cnc2nc[nH]c12 [Example 171, N-[4-(methanesulfonylmethyl)phenyl]-7-{7-methyl-1H-imidazo[4,5-b]pyridin-6-yl}-5H,6H,7H,8H-pyrido[3,4-d]pyrimidin-2-amine] | – | < 100 | 500 to 1000
Cc1c(N2CCc3cnc(Nc4ccc(CC(=O)N5CC(C)(O)C5)cc4)nc3C2)cnc2c1NCCO2 [Example 173, 1-(3-hydroxy-3-methylazetidin-1-yl)-2-{4-[(7-{8-methyl-1H,2H,3H-pyrido[2,3-b][1,4]oxazin-7-yl}-5H,6H,7H,8H-pyrido[3,4-d]pyrimidin-2-yl)amino]phenyl}ethan-1-one] | < 500 | < 100 | –
Cc1c(N2CCc3cnc(Nc4ccc(CC(=O)N5CC(OC(C)C)C5)cc4)nc3C2)cnc2c1NCCO2 [Example 174, 2-{4-[(7-{8-methyl-1H,2H,3H-pyrido[2,3-b][1,4]oxazin-7-yl}-5H,6H,7H,8H-pyrido[3,4-d]pyrimidin-2-yl)amino]phenyl}-1-[3-(propan-2-yloxy)azetidin-1-yl]ethan-1-one] | < 500 | < 100 | –
COCC1CN(C(=O)Cc2ccc(Nc3ncc4c(n3)CN(c3cnc5c(c3C)NCCO5)CC4)cc2)C1 [Example 175, 1-[3-(methoxymethyl)azetidin-1-yl]-2-{4-[(7-{8-methyl-1H,2H,3H-pyrido[2,3-b][1,4]oxazin-7-yl}-5H,6H,7H,8H-pyrido[3,4-d]pyrimidin-2-yl)amino]phenyl}ethan-1-one] | < 500 | < 100 | –
Cc1c(N2CCc3cnc(Nc4ccc(CS(=O)(=O)C5CC5)cn4)cc3C2)cnc2c1NCCO2 [Example 176, N-{5-[(cyclopropanesulfonyl)methyl]pyridin-2-yl}-6-{8-methyl-1H,2H,3H-pyrido[2,3-b][1,4]oxazin-7-yl}-5,6,7,8-tetrahydro-2,6-naphthyridin-3-amine] | < 500 | < 100 | –
Cc1cc(Nc2ncc3c(n2)CN(c2cnc4c(c2C)NCCO4)CC3)ccc1CS(C)(=O)=O [Example 178, N-[4-(methanesulfonylmethyl)-3-methylphenyl]-7-{8-methyl-1H,2H,3H-pyrido[2,3-b][1,4]oxazin-7-yl}-5H,6H,7H,8H-pyrido[3,4-d]pyrimidin-2-amine] | < 500 | < 100 | –
Cc1cc(Nc2cc3c(cn2)CCN(c2cnc4c(c2C)NCCO4)C3)ccc1CS(C)(=O)=O [Example 179, N-[4-(methanesulfonylmethyl)-3-methylphenyl]-6-{8-methyl-1H,2H,3H-pyrido[2,3-b][1,4]oxazin-7-yl}-5,6,7,8-tetrahydro-2,6-naphthyridin-3-amine] | < 500 | < 100 | –
Cc1c(N2CCc3cnc(Nc4ccc(CS(C)(=O)=O)cc4)nc3C2C)cnc2c1NCCO2 (stereo not shown) [Example 180, N-[4-(methanesulfonylmethyl)phenyl]-8-methyl-7-{8-methyl-1H,2H,3H-pyrido[2,3-b][1,4]oxazin-7-yl}-5H,6H,7H,8H-pyrido[3,4-d]pyrimidin-2-amine] | < 500 | < 100 | –
COC1CN(C(=O)Cc2ccc(Nc3ncc4c(n3)CN(c3cnc5c(c3C)NCCO5)CC4)cc2)C1 [Example 181, 1-(3-methoxyazetidin-1-yl)-2-{4-[(7-{8-methyl-1H,2H,3H-pyrido[2,3-b][1,4]oxazin-7-yl}-5H,6H,7H,8H-pyrido[3,4-d]pyrimidin-2-yl)amino]phenyl}ethan-1-one] | < 500 | < 100 | –
Cc1c(N2CCc3cnc(Nc4ccc(C(C)(C)C#N)cc4)nc3C2)cnc2c1NCCO2 [Example 182, 2-methyl-2-(4-((7-(8-methyl-2,3-dihydro-1H-pyrido[2,3-b][1,4]oxazin-7-yl)-5,6,7,8-tetrahydropyrido[3,4-d]pyrimidin-2-yl)amino)phenyl)propanenitrile] | < 500 | < 100 | –
Cc1c(N2CCc3cnc(Nc4ccc(Cn5ccnn5)cc4)nc3C2)cnc2c1NCCO2 [Example 183, 7-{8-methyl-1H,2H,3H-pyrido[2,3-b][1,4]oxazin-7-yl}-N-{4-[(1H-1,2,3-triazol-1-yl)methyl]phenyl}-5H,6H,7H,8H-pyrido[3,4-d]pyrimidin-2-amine] | < 500 | < 100 | –

More lines, main results first:

IC50 [1, 3] [nM] | IC50 [2] [nM] | Compound | IC50 ([1]; read-out: HPK1 pSLP76 IC50; αCD3/αCD28 Dynabeads stimulated cells, pSLP76 (Ser376) detection) [nM]
< 500 | < 100 | Cc1c(N2CCc3cnc(Nc4ccc(Cn5nccn5)cc4)nc3C2)cnc2c1NCCO2 [Example 185, 7-{8-methyl-1H,2H,3H-pyrido[2,3-b][1,4]oxazin-7-yl}-N-{4-[(2H-1,2,3-triazol-2-yl)methyl]phenyl}-5H,6H,7H,8H-pyrido[3,4-d]pyrimidin-2-amine] | –
500 to 1000 | < 100 | Cc1c(N2CCc3cnc(Nc4ccc(C(C)(C)S(C)(=O)=O)cc4)nc3C2)cnc2c1NCCO2 [Example 186, N-[4-(2-methanesulfonylpropan-2-yl)phenyl]-7-{8-methyl-1H,2H,3H-pyrido[2,3-b][1,4]oxazin-7-yl}-5H,6H,7H,8H-pyrido[3,4-d]pyrimidin-2-amine] | –
< 500 | < 100 | Cc1c(N2CCc3cnc(Nc4ccc(Cn5cccn5)cc4)nc3C2)cnc2c1NCCO2 [Example 187, 7-{8-methyl-1H,2H,3H-pyrido[2,3-b][1,4]oxazin-7-yl}-N-{4-[(1H-pyrazol-1-yl)methyl]phenyl}-5H,6H,7H,8H-pyrido[3,4-d]pyrimidin-2-amine] | –
< 500 | < 100 | Cc1c(N2CCc3cnc(Nc4ccc(CN5CCOC5=O)cc4)nc3C2)cnc2c1NCCO2 [Example 188, 3-({4-[(7-{8-methyl-1H,2H,3H-pyrido[2,3-b][1,4]oxazin-7-yl}-5H,6H,7H,8H-pyrido[3,4-d]pyrimidin-2-yl)amino]phenyl}methyl)-1,3-oxazolidin-2-one] | –
< 500 | < 100 | Cc1c(N2CCc3cnc(Nc4ccc(CC(=O)N(C)C)cc4)nc3C2)cnc2c1NCCO2 [Example 189, N,N-dimethyl-2-{4-[(7-{8-methyl-1H,2H,3H-pyrido[2,3-b][1,4]oxazin-7-yl}-5H,6H,7H,8H-pyrido[3,4-d]pyrimidin-2-yl)amino]phenyl}acetamide] | –
< 500 | < 100 | Cc1c(N2CCc3cnc(Nc4ccc(CS(C)(=O)=O)c(F)c4)nc3C2)cnc2c1NCCO2 [Example 190, N-[3-fluoro-4-(methanesulfonylmethyl)phenyl]-7-{8-methyl-1H,2H,3H-pyrido[2,3-b][1,4]oxazin-7-yl}-5H,6H,7H,8H-pyrido[3,4-d]pyrimidin-2-amine] | –
< 500 | < 100 | Cc1c(N2CCc3cnc(Nc4cccc(Cn5ccnc5)c4)nc3C2)cnc2c1NCCO2 [Example 191, N-{3-[(1H-imidazol-1-yl)methyl]phenyl}-7-{8-methyl-1H,2H,3H-pyrido[2,3-b][1,4]oxazin-7-yl}-5H,6H,7H,8H-pyrido[3,4-d]pyrimidin-2-amine] | –
